Reference: paper PMC6437697 (Journal of Medicinal Chemistry, 2019)

What was measured:
Assay in all cases: KINOMEscan
Assay type in all cases: binding
Conditions in all cases: read-out: % control activity remaining
CAMK2G = biological target: T1, CAMK2G (Homo sapiens, UniProt Q13555)
T1 construct: purchased Eurofins DiscoverX KINOMEscan

PRKX = biological target: T2, PRKX (Homo sapiens, UniProt P51817)
T2 construct: purchased Eurofins DiscoverX KINOMEscan
T2 sequence (P51817 1-358): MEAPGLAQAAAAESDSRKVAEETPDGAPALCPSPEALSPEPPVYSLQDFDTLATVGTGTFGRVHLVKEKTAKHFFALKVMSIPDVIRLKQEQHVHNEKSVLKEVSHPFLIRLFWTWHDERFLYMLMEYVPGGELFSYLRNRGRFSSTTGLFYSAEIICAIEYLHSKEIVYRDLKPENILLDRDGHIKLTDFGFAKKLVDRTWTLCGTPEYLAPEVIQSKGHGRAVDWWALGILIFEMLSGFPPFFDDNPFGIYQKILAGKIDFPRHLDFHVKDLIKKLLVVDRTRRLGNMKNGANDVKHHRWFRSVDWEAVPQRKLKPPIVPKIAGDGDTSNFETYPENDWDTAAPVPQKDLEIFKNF

PIK3C2G = biological target: T3, PIK3C2G (Homo sapiens, UniProt O75747)
T3 construct: purchased Eurofins DiscoverX KINOMEscan
T3 sequence (O75747 1-1486): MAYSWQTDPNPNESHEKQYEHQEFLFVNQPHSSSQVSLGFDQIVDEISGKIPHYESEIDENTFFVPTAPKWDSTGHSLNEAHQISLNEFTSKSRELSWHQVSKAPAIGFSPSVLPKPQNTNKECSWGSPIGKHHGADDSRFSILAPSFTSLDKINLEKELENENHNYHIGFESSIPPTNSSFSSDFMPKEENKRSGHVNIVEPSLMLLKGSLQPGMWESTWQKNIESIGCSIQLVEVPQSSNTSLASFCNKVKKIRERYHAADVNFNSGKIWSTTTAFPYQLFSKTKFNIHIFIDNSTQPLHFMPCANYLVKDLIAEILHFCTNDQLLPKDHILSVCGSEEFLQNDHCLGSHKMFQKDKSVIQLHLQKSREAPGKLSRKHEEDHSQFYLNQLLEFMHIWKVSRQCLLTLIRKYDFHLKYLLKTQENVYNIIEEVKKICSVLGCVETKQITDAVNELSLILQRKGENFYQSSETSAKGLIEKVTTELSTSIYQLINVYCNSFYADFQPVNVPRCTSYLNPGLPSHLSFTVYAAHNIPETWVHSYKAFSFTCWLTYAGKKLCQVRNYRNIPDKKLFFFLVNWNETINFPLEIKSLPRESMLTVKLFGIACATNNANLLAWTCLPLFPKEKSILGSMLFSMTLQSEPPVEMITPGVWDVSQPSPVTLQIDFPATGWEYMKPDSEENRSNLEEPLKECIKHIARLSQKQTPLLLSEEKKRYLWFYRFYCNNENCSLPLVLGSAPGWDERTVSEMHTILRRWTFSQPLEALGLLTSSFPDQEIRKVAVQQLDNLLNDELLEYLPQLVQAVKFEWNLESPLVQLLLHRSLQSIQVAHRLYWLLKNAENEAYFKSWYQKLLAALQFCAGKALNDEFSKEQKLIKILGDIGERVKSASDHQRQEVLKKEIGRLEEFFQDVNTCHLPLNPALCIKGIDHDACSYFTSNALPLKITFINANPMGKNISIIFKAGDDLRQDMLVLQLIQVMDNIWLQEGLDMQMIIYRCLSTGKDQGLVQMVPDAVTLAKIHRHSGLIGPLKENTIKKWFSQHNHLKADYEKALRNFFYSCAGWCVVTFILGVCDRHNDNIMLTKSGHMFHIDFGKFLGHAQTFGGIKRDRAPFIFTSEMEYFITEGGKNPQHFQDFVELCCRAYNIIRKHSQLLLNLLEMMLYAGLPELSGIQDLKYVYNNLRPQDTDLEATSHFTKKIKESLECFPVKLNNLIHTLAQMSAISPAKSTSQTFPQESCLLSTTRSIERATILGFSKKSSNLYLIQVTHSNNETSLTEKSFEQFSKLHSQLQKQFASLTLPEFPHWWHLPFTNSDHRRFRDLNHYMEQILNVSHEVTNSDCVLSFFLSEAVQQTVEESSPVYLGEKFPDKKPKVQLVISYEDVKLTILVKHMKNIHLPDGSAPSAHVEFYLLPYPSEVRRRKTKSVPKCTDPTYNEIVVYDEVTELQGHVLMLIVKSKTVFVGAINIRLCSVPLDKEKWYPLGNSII

CDC2L5 = biological target: T4, CDC2L5 (Homo sapiens, UniProt Q14004)
T4 construct: purchased Eurofins DiscoverX KINOMEscan

MST2 = biological target: T5, MST2 (Homo sapiens, UniProt Q13188)
T5 construct: purchased Eurofins DiscoverX KINOMEscan
T5 sequence (Q13188 1-491): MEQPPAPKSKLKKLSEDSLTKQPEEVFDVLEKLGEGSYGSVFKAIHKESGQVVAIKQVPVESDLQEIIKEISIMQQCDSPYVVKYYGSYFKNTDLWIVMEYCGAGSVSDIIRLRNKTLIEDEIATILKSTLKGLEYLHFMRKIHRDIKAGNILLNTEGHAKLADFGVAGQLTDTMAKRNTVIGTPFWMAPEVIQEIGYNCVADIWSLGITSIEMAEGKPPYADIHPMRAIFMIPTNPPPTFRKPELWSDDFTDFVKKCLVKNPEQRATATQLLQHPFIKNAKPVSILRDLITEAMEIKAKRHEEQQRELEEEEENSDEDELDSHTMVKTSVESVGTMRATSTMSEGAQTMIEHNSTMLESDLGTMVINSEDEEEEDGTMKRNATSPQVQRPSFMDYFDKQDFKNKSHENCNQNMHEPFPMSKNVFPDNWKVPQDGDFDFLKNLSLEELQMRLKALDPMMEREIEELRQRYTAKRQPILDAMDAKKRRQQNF

CAMK2D = biological target: T6, CAMK2D (Homo sapiens, UniProt Q13557)
T6 construct: purchased Eurofins DiscoverX KINOMEscan

PIP5K1C = biological target: T7, PIP5K1C (Homo sapiens, UniProt O60331)
T7 construct: purchased Eurofins DiscoverX KINOMEscan

[1] = biological target: T8, ABL1(Q252H)-phosphorylated (Homo sapiens, UniProt P00519, Q252H)
T8 construct: purchased Eurofins DiscoverX KINOMEscan

T7 sequence (O60331 whole entry): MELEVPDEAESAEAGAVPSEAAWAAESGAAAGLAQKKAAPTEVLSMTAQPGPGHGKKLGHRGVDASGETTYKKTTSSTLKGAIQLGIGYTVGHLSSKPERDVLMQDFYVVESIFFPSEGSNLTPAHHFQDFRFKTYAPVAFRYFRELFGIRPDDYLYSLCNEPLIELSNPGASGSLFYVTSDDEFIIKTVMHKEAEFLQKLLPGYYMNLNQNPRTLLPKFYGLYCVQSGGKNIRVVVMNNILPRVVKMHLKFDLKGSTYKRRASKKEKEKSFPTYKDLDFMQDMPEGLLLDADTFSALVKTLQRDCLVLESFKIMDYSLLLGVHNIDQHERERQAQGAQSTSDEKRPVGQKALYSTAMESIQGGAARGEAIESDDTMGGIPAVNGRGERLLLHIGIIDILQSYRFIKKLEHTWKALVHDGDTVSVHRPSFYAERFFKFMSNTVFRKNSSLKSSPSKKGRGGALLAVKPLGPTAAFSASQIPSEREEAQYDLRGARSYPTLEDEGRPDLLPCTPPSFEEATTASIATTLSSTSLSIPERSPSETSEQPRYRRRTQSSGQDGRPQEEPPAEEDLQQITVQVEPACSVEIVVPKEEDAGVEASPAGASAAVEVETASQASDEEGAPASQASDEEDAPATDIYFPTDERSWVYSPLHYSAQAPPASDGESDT
T4 sequence (Q14004 whole entry): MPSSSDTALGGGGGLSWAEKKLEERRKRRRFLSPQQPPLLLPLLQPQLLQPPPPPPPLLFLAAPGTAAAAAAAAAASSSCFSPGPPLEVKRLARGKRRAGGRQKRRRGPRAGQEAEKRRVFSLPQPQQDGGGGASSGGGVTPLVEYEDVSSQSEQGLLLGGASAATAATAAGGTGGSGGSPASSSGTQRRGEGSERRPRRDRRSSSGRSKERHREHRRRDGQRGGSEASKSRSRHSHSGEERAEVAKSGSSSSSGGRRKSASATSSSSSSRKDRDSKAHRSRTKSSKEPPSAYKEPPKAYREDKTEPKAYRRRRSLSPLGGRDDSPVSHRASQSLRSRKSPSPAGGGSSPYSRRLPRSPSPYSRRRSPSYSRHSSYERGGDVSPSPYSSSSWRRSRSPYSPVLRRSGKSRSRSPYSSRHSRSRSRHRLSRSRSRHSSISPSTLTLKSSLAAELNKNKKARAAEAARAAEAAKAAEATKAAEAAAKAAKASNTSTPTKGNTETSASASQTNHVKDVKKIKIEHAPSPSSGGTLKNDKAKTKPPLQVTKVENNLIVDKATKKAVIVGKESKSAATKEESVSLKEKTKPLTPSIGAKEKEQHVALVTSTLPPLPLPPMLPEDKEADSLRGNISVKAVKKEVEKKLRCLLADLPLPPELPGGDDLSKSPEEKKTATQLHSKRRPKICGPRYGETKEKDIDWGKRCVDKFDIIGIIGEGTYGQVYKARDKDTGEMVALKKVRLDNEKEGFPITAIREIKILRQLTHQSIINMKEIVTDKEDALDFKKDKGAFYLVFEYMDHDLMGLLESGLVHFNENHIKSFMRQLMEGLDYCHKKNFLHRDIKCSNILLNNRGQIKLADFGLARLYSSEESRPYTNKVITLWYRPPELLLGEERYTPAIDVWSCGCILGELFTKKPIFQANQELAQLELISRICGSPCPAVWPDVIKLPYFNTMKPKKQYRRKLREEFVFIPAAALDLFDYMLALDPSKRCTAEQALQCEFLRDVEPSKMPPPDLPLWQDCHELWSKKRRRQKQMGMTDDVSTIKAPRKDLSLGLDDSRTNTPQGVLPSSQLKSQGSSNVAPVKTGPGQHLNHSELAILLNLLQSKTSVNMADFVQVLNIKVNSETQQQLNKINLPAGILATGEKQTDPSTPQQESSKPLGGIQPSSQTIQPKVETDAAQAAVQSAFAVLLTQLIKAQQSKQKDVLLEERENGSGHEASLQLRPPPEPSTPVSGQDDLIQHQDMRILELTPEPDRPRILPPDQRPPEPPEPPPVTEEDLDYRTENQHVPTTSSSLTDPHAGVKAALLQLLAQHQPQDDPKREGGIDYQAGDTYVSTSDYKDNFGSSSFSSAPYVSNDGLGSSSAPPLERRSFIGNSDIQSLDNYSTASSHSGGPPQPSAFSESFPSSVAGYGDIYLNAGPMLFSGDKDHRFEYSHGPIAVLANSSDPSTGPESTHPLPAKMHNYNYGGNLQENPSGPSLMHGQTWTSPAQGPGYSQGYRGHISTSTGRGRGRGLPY
T1 sequence (Q13555 whole entry): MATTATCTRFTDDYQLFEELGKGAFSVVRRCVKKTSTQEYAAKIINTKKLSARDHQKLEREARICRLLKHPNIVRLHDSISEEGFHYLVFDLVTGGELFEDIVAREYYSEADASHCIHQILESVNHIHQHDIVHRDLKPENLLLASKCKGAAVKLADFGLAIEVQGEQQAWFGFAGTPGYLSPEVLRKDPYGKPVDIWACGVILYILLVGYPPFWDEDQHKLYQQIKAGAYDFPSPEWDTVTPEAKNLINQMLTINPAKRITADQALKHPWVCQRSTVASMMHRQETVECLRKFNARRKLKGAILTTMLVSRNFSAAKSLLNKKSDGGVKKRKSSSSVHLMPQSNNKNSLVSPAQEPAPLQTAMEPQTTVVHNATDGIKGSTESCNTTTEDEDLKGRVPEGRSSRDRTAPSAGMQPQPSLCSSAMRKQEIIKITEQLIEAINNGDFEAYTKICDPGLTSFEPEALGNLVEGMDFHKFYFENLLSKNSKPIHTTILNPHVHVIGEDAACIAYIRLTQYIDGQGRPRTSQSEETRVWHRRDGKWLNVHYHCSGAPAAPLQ
T6 sequence (Q13557 whole entry): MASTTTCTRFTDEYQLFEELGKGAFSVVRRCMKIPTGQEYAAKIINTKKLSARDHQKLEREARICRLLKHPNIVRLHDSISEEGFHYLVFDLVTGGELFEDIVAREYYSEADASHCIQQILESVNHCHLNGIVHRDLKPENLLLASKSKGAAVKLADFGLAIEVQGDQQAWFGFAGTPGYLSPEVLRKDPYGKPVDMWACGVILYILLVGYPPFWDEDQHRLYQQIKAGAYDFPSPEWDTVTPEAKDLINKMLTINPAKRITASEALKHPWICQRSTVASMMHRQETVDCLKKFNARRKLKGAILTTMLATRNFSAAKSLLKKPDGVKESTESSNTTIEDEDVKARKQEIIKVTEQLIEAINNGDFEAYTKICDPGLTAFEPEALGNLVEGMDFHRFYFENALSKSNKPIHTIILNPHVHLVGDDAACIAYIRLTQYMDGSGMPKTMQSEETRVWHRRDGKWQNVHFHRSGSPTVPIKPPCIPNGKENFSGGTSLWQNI

| SMILES | remaining binding at 1 µM (CAMK2G) | remaining binding at 1 µM (PRKX) | remaining binding at 1 µM (PIK3C2G) | remaining binding at 1 µM (CDC2L5) | remaining binding at 1 µM (MST2) | remaining binding at 1 µM (CAMK2D) | remaining binding at 1 µM (PIP5K1C) | remaining binding at 1 µM [1] |
| --- | --- | --- | --- | --- | --- | --- | --- | --- |
| CN1CCC(CNc2cc(Cl)nn3c(-c4cc5nc(Nc6ccccc6)[nH]c5cc4F)cnc23)CC1 [compound 31, 6-Chloro-3-(6-fluoro-2-(phenylamino)-1H-benzo[d]imidazol-5-yl)-N-((1-methylpiperidin-4-yl)methyl)imidazo[1,2-b]pyridazin-8-amine] | 100% | 100% | 82% | 96% | 100% | 100% | 84% | 79% |
| O=C(CN1CCOCC1)N[C@H]1CC[C@H](Nc2cc(Cl)nn3c(-c4ccc5[nH]ncc5c4)cnc23)CC1 [compound 26] | 52% | 80% | 80% | 84% | 92% | 62% | 91% | 46% |
| Clc1cc(NCC2CC2)c2ncc(-c3ccc4[nH]ncc4c3)n2n1 [compound 2, 6-Chloro-N-(cyclopropylmethyl)-3-(1H-indazol-5-yl)imidazo[1,2-b]pyridazin-8-amine] | 100% | 91% | 91% | 92% | 85% | 97% | 85% | 78% |
